Consider 34 molecules from ChEMBL document CHEMBL5126562, “Surprising lipophilicity observations identify unexpected conformational effects” (Bioorg Med Chem Lett, 2022).

The nature of data set [1]: Lipophilicity, logD of compound at pH 7.4. The following applies: buffer. The format is physicochemical.
The nature of data set [2]: Solubility of compound at pH 7.4. It is filed as physicochemical. As to conditions: buffer.

≈ marks a conversion by molar mass, not a printed value. Where only a bound is given, the exact number is not on record here.

The term logD denotes lipophilicity at a set pH, counting ionised and neutral species. Usually solubility stands for the concentration that dissolves in the medium under given conditions. Higher therefore signals a readily soluble substance. In the case of `CN1CCN(c2cnc(NCc3c(F)ccc4c3CCO4)n3cnnc23)C1=O`, in data set [1], the logD stood at 1.4. Also, the concentration in solution in data set [2] (solubility) came to 641 µM (≈ 246 µg/mL). On the same counts, the results for `CS(=O)(=O)c1ccc(CNC(=O)C2CCCN(c3cccc(C(F)(F)F)c3)C2=O)cc1` (stereo unspecified) are 1.5 and 94 µM (≈ 42.7 µg/mL).

In the case of `O=C([C@@H]1C[C@H]1c1cccc(N2CCCC2=O)c1)N1CCN(C2CCC2)CC1`, the logD in data set [1] was found to be 2. Besides, the solubility in data set [2] was more than 4140 µM. The matching figures for `O=C1CCCCN1c1cnc(NCc2c(F)ccc3c2CCO3)n2cnnc12`: 1.3 and 351 µM (≈ 134 µg/mL). On the same counts, the results for `Cc1nc(Nc2cccc(N3CCCC3=O)n2)sc1-c1cc2c(c(S(=O)(=O)NC3COC3)c1)C(=O)N([C@@H](C)C(F)(F)F)C2` are more than 4 and 0.081 µM (≈ 0.0516 µg/mL).

As for `O=C(C1CC1c1ccc(N2CCCC2=O)cc1)N1CCN(C2CCC2)CC1` (stereo unspecified), the logD in data set [1] was 2. In data set [2], this molecule came in with a solubility of more than 2680 µM. The matching figures for `Cc1nc(Nc2cccc(N3CCCN(C)C3=O)n2)sc1-c1cc2c(c(S(C)(=O)=O)c1)C(=O)N([C@@H](C)C1CC1)C2`: 3.5 and less than 0.14 µM. On to `Cc1nc(Nc2cccc(N3CCCCC3=O)n2)sc1-c1cc2c(c(S(=O)(=O)NC3COC3)c1)C(=O)N([C@@H](C)C(F)(F)F)C2`, for which the logD in data set [1] worked out at 3.8. Also, in data set [2], the concentration in solution (solubility) was 3 µM (≈ 1.95 µg/mL).

As for `O=C1CCCCN1c1cnc(NCc2c(F)ccc3c2CCO3)c2cn[nH]c(=O)c12`, in data set [1], the logD came to 1.9. Also, in data set [2], the solubility turned out to be 18 µM (≈ 7.37 µg/mL).

In turn, `CS(=O)(=O)c1ccc(CNC(=O)C2CCN(c3cccc(C(F)(F)F)c3)C2=O)cc1` (stereo unspecified) had a log distribution coefficient (logD) in data set [1] of 2.1. Besides, the solubility in data set [2] is 15 µM (≈ 6.61 µg/mL). Regarding `Cc1nc(Nc2cccc(N3CCCCC3=O)n2)sc1-c1cc2c(c(S(=O)(=O)NC3COC3)c1)C(=O)N([C@@H](C)C1CC1)C2`, in data set [1], the logD turned out to be 3.6. Moreover, in data set [2], the solubility was found to be 1.8 µM (≈ 1.12 µg/mL). The matching figures for `O=C1CCCCN1c1cccc(C(=O)N(c2ncccc2Cl)[C@@H]2CCCNC2)c1`: -0.9 and more than 973 µM.

On to `CN1CCN(c2ccc(F)cc2CN2CCCN(c3ccc(N4CCOCC4)cc3)C2=O)CC1`, for which, in data set [1], the logD came to 1.6. The same molecule registered a solubility in data set [2] of 387 µM (≈ 181 µg/mL).

`CC(=O)N1CCc2cc(-c3cccc4c3CCCC4)cc(N3CCCC3=O)c21` came in with a logD in data set [1] of 3.5. Also, in data set [2], the concentration in solution (solubility) came to 271 µM (≈ 101 µg/mL). On the same counts, the results for `N#Cc1cccc2ncn(CC(=O)NCc3ccc(C(F)(F)F)nc3N3CCCC3=O)c12` are 1.8 and more than 2400 µM.

Molecule `C[C@]1(CS(=O)(=O)N2CC=C(C#Cc3cccc(N4CCCC4=O)c3)CC2)NC(=O)NC1=O` came in with a logD in data set [1] of 1.5. In data set [2], the solubility is 94 µM (≈ 42.9 µg/mL).

In turn, `Cc1nc(Nc2cccc(N3CCN(C)C3=O)n2)sc1-c1cc2c(c(S(C)(=O)=O)c1)C(=O)N([C@@H](C)C1CC1)C2` had a logD in data set [1] of 3.4. For the same molecule, in data set [2], the solubility is less than 0.045 µM. On the same counts, the results for `COCC(=O)N1CCC(COc2ccc(N3CCCCC3=O)cc2)C1` (stereo unspecified) are -0.1 and more than 3970 µM. On the same counts, the results for `COc1ccc(N2CCN(C)CC2)c(CN2CCN(c3ccc(N4CCOCC4)cc3)C2=O)c1` are 1.8 and 456 µM (≈ 212 µg/mL). Turning to `O=C1CCCN1c1cnc(NCc2c(F)ccc3c2CCO3)n2cnnc12`, the logD in data set [1] is 1.3. `Cc1nc(Nc2cccc(N3CCOC3=O)n2)sc1-c1cc2c(c(S(=O)(=O)NC3COC3)c1)C(=O)N([C@@H](C)C1CC1)C2` registered a logD in data set [1] of more than 4. This molecule also had a solubility in data set [2] of 0.021 µM (≈ 0.0128 µg/mL). On the same counts, the results for `CN1CCN(c2ccc(F)cc2CN2CCN(c3ccc(N4CCOCC4)cc3)C2=O)CC1` are 2.1 and 189 µM (≈ 85.7 µg/mL). Regarding `N#Cc1cccc2ncn(CC(=O)NCc3ccc(C(F)(F)F)nc3N3CCCCC3=O)c12`, the logD in data set [1] was determined as 1.8. Also, the solubility in data set [2] was more than 200 µM.

Turning to `O=C1CCCN1c1cccc(C(=O)N(c2ncccc2Cl)[C@@H]2CCCNC2)c1`, the logD in data set [1] is -0.5. Also, in data set [2], the solubility turned out to be 67 µM (≈ 26.7 µg/mL). As to `COCC(=O)N1CCC(COc2ccc(N3CCCC3=O)cc2)C1` (stereo unspecified), in data set [1], the logD came to 0.2. The amount in solution in data set [2] (solubility) came to 271 µM (≈ 90.1 µg/mL). In turn, `Cc1nc(Nc2cccc(N3CCCC3=O)n2)sc1-c1cc2c(c(S(C)(=O)=O)c1)C(=O)N([C@@H](C)C1CC1)C2` [AZD-8154] displayed a logD in data set [1] of 4.4. In data set [2], this molecule yielded a solubility of 0.054 µM (≈ 0.0298 µg/mL). Consider `O=C([C@H]1C[C@@H]1c1cccc(N2CCCCC2=O)c1)N1CCN(C2CCC2)CC1`, for which, in data set [1], the logD stood at 1.7. For the same molecule, in data set [2], the solubility was 2190 µM (≈ 837 µg/mL).

Take `CC(=O)N1CCc2cc(-c3cccc4c3CCCC4)cc(N3CCCCC3=O)c21`: in data set [1], the logD was 3.8. Moreover, in data set [2], the solubility is 259 µM (≈ 101 µg/mL). The molecule `COc1ccc(N2CCN(C)CC2)c(CN2CCCN(c3ccc(N4CCOCC4)cc3)C2=O)c1` gave a logD in data set [1] of 1.3. Besides, in data set [2], the concentration in solution (solubility) came to 404 µM (≈ 194 µg/mL). The matching figures for `O=C([C@@H]1C[C@H]1c1cccc(N2CCCCC2=O)c1)N1CCN(C2CCC2)CC1`: 1.6 and more than 3000 µM. As to `Cc1nc(Nc2cccc(N3CCCCC3=O)n2)sc1-c1cc2c(c(S(C)(=O)=O)c1)C(=O)N([C@@H](C)C1CC1)C2`, the logD in data set [1] came to 3.9. Further, the solubility in data set [2] came out at 6.3 µM (≈ 3.56 µg/mL). On the same counts, the results for `C[C@]1(CS(=O)(=O)N2CC=C(C#Cc3cccc(N4CCCCC4=O)c3)CC2)NC(=O)NC1=O` are 1 and 89 µM (≈ 41.9 µg/mL). In turn, `O=C1CCCN1c1cnc(NCc2c(F)ccc3c2CCO3)c2cn[nH]c(=O)c12` returned a logD in data set [1] of 1.8.

Consider `CN1CCCN(c2cnc(NCc3c(F)ccc4c3CCO4)n3cnnc23)C1=O`, for which, in data set [1], the logD stood at 1.2. Also, the concentration in solution in data set [2] (solubility) was 153 µM (≈ 60.8 µg/mL).
